Assay results published in PMC11178805, “Ligand-based design of [^18F]OXD-2314 for PET imaging in non-Alzheimer’s disease tauopathies” (Nature Communications, 2024).
“And” between values parts separate entries of the source, which are not always exact repeats. Identical values can stand only once.

How the values were obtained:
aggregated Aβ = target: T1, aggregated Aβ (Homo sapiens, UniProt P05067); test: Competition binding vs [^3H]PiB in AD tissue homogenates; settings: n = 3
T1 construct: tissue Neurodegenerative Disease Brain Bank at UCSF; host or cells: human AD brain, middle frontal gyrus, pooled homogenate
Protocol: (§1) Fresh frozen, autopsy-confirmed human PD anterior cingulate cortex brain tissue blocks (1 cm^3) were obtained from Dr. Thomas Beach at Banner/Sun Health AZ with funding from the Michael J. Fox Foundation and contained frequent α-synuclein aggregates and no other detectable aggregated amyloid species. The frozen tissue blocks were prepared for the binding assays as previously described[47],[48], except that equal quantities of the homogenates of three AD brains (AD1-AD3, Table S1) were pooled, as were homogenates from three PSP brains (PSP1-PSP3), three CBD brains (CBD1-CBD3), three Pick’s brains (PiD1-PiD3), and 4 PD brains (PD1-PD4) in order to help minimize the inter-subject variability within the different neuropathological groups. Individual subcortical brain tissues from a PSP subject (PSP4) and a CBD subject (CBD4), as well as with the middle frontal cortex of a control subject, were prepared for the binding assays as previously described[47],[48].
(§2) The equilibrium inhibition constant (Ki) values of the unlabeled compounds were determined versus tritium-labeled radioligands using published methods.

[1] = target: 3R/4R-tau aggregates in AD tissue (Homo sapiens, UniProt P10636); test: Competition binding vs [^3H]OXD-2115 in AD tissue homogenates; settings: vs [^3H]OXD-2115, AD tissue homogenates, n = 1
Protocol: as §1, §2

[2] = Dynamic PET imaging with [^18F]OXD-2314 in rhesus macaque (baseline and displacement); assay type: in vivo
Protocol: Dynamic PET imaging was performed in a rhesus macaque (macaca mulatta) monkey following the injection of [^18F]OXD-2314 at baseline (104.9 MBq, n = 1) and was repeated in a second [^18F]OXD-2314 study (115.8 MBq, n = 1) where a displacing dose of unlabeled OXD-2314 (0.5 mg/kg) was administered 10 min after [^18F]OXD-2314 injection to verify the absence of specific binding in NHP brain. Venous blood samples were drawn to characterize the metabolic fate of [^18F]OXD-2314 in the macaque. Dynamic [^18F]OXD-2314 PET imaging was also performed in a male (106.6 MBq, n = 1) and a female (115.8 MBq, n = 1) baboon (papio anubis), and venous blood samples were drawn in both baboons to characterize potential effects of sex on radiometabolism. Bilateral regions of interest were defined on 5–8 contiguous axial image planes for the lateral temporal cerebral cortex, cerebellum, striatum, and whole brain, which were used to sample dynamic [^18F]OXD-2314 PET images to determine the time-varying radioactivity concentration expressed in SUV units. [^18F]OXD-2314 readily entered macaque brain (whole brain peak ~2.2 SUV at ~2 min) and distributed uniformly throughout cortical and subcortical grey matter regions (Fig. 5A). […] Radiometabolite analysis of macaque venous blood identified only one, polar radiometabolite, which increased from 37% at 10 min to 77% at 90 min post-injection and was not likely brain penetrant (Figs. S19, S20).
NHP imaging studies in a male (13 kg) macaca mulata monkey and male (25.7 kg) and female (14.2 kg) papio anubis baboons were carried out in accordance with the guidelines set forth by the Institutional Animal Care and Use Committee at the University of Pittsburgh. Additional details regarding the maintenance of an active environmental enrichment program for the housed NHPs are described in Supplemental Information. Dynamic [^18F]OXD-2314 PET imaging of the brains of the isoflurane anesthetized NHPs was performed using a Siemens Biograph mCT Flow 64-4 R PET/CT scanner ([…], maximum intrinsic spatial resolution of 4.3 mm FWHM[53]. Following a low-dose CT scan for attenuation correction of PET emission data, [^18F]OXD-2314 was injected intravenously and emission data were acquired in list-mode for a period of 90 min. Emission data were binned into a dynamic series of 32 frames (20 sec-10 min) and reconstructed using filtered back projection with Fourier rebinning (FORE + FBP) with standard corrections applied that included attenuation, scatter, electronics dead-time, and physical decay.

[3] = Radiometabolite analysis in rat plasma and brain homogenates; assay type: in vivo, rat (Sprague-Dawley); settings: for parent fraction of radioactivity in brain homogenates: rats
Protocol: Radiometabolite analysis was performed ex vivo in plasma and brain homogenates from rats (n = 5, 3 female and 2 male) at 30 and 60 min after radiotracer injection (Figs. S11–S16). […] The parent fraction in plasma was 6% at 30 min and 5% at 60 min in the two male rats, respectively, and 32% at 30 min (n = 1) and 18% and 17% at 60 min (n = 2) in the female rats. Different rates of metabolism between male and female rats may have contributed to the differences in kinetics observed in the brain PET scans. No lipophilic radiometabolites were detected in plasma or brain. Parent [^18F]OXD-2314 accounted for 82 ± 7% (n = 2) and 80 ± 5% (n = 3) of the radioactivity in rat brain homogenates by 30 and 60 min post-injection of the radiotracer, respectively. The rats were not perfused with saline immediately prior to sacrifice, so that radiometabolites in blood were trapped in the brain and likely accounted for a portion of the polar radiometabolites found in brain, as cerebral blood volume in rats is approximately 4–5% of total brain volume.
Five adult Sprague-Dawley rats (3 F/2 M, 378 ± 51 g) were used in [^18F]OXD-2314 radiometabolite analysis. Following injection of 46.7 ± 3.3 MBq of the radiotracer through a tail-vein catheter, rats were sacrificed by decapitation 30 min (n = 2) and 60 min (n = 3) post-injection. Trunk blood was collected and centrifuged for 5 min at 2500 × g, and the plasma was collected. Brains were quickly extracted and homogenized with a BeadBug™ (Benchmark Scientific; Sayreville, NJ, USA) in 3.2 mL acetonitrile together with 1 μg of unlabeled parent compound, then 1.6 mL deionized H2O was added and mixed. The homogenate was centrifuged at 12,000 × g for 5 min, and the supernatant was collected. Parent radiotracer was separated from metabolites in plasma and brain extract by column-switching HPLC in a mobile phase of 40/60 CH3CN/100 mM NH4HCO2 (v/v) and analyzed with PowerChrom 2.6.15 (eDAQ).

Chain of 3R/4R-tau aggregates in AD tissue (P10636 623-695 limits assumed): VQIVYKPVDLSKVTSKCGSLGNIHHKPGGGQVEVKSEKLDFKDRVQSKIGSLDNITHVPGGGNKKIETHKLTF
T1 sequence (P05067 672-713 limits assumed): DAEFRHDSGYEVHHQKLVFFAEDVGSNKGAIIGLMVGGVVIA

| Structure (SMILES) | Ki (aggregated Aβ) | Ki [1] | initial brain uptake ([2]; NHP) | ratio initial maximum to late minimum brain radioactivity ([2]; NHP) | 2:90 min radioactivity concentration ratio ([2]; macaque whole brain) | time of whole brain peak ([2]; macaque, baseline) | whole brain clearance half-time ([2]; macaque, baseline) | whole brain peak uptake ([2]; macaque, baseline, n = 1) | % Parent Brain ([3]; female rat, 30 min) | parent fraction in plasma ([3]; female rat, 30 min post-injection) | % Parent Brain ([3]; female rats, 60 min) | parent fraction in plasma ([3]; female rats, 60 min post-injection) | % Parent Brain ([3]; male rat, 30 min) | parent fraction in plasma ([3]; male rat, 30 min post-injection) | % Parent Brain ([3]; male rat, 60 min) | parent fraction in plasma ([3]; male rat, 60 min post-injection) | parent fraction of radioactivity in brain homogenates ([3]; 30 min post-injection, n = 2) | parent fraction of radioactivity in brain homogenates ([3]; 60 min post-injection, n = 3) |
| --- | --- | --- | --- | --- | --- | --- | --- | --- | --- | --- | --- | --- | --- | --- | --- | --- | --- | --- |
| COC1CCCN(c2ccc(-c3cc4cc(O)ccc4[nH]3)c(F)n2)C1 (stereo not drawn) [OXD-2314, 2-(2-fluoro-6-(3-methoxypiperidin-1-yl)pyridin-3-yl)-1H-indol-5-ol] | 161 ± 34 nM | 8.8 nM |  |  |  |  |  |  |  |  |  |  |  |  |  |  |  |  |
| CO[C@H]1CCCN(c2ccc(-c3cc4cc(O)ccc4[nH]3)c([18F])n2)C1 [[^18F]OXD-2314] |  |  | > 2 SUV | ~ 4 | 3.9 | ~ 2 min | ~ 22 min | ~ 2.2 SUV | 77.11% | 32% and 32.43% | 81.01% and 83.78% | 18% and 17% and 17.66% and 17.32% | 87.09% | 6% and 5.79% | 74.16% | 5% | 82 ± 7% | 80 ± 5% |
